Assay results from article PMC8760490, “Discovery of novel furanylbenzamide inhibitors that target oncogenic tyrosine phosphatase SHP2 in leukemia cells” (The Journal of Biological Chemistry, 2021).
Read-outs that look alike come from different tables or passages of the source.

Legend:
[1] = molecular target: T1, SHP2 catalytic domain (SHP2cat; residues 248–527) (Homo sapiens, UniProt Q06124); experiment: DiFMUP fluorescence phosphatase inhibition assay, SHP2cat; type: biochemical
T1 construct: the SHP2 catalytic domain (SHP2cat; residues 248–527); made in house
T1 sequence (Q06124 248-527): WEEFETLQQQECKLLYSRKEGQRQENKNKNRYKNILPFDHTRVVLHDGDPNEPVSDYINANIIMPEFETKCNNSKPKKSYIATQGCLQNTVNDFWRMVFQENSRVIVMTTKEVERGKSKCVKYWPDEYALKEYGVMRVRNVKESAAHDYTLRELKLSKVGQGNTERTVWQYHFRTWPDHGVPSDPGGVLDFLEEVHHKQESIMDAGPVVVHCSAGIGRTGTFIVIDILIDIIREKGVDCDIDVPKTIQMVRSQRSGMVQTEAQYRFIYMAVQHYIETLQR
Description: To test the synthesized compounds for their potential to inhibit SHP2 activity, a fluorescence intensity-based assay using 6,8-difluoro-4-methylumbelliferyl phosphate (DiFMUP) as the substrate was adapted for three recombinant SHP2 constructs: (1) the SHP2 catalytic domain (SHP2cat; residues 248–527), (2) the full-length SHP2-E76K oncogenic mutant, and (3) the full-length SHP2 WT (SHP2-WT). The recombinant SHP2 proteins were expressed and purified as described previously ([36]). A dually phosphorylated peptide derived from the insulin receptor substrate 1 (IRS-1) served as a surrogate binding protein and was used to activate SHP2-WT ([30], [36]). […] Michaelis–Menten experiments to determine the DiFMUP Michaelis–Menten constant (Km) for each SHP2 construct were performed as described previously ([36]) and yielded the following values: SHP2-WT, Km = 60 μM; SHP2-E76K, Km = 20 μM; and SHP2cat, Km = 20 μM. Relative maximum rates (Vmax) of the DiFMUP reactions expressed as relative fluorescence units per minute (RFU/min) were as follows: SHP2-WT, Vmax = 871 RFU/min; SHP2-E76K, Vmax = 2730 RFU/min; and SHP2cat, Vmax = 2912 RFU/min. IC50 values for each compound were determined from initial rates in 10-point dose–response assays using DiFMUP at a concentration corresponding to its Km value for the respective SHP2 construct. […] Replacements for the benzothiophenone were explored using analog #10.
Recombinant human full-length SHP2 (1–594) WT and E76K mutants, as well as the SHP2cat (248–527), were expressed and purified as described before ([36], [41]). Recombinant human PTP1B (1–300) and the codon-optimized STEP (280–566) catalytic domains were cloned into PET-15b and expressed as N-His-tagged fusion proteins. For expression, transformed BL21(DE3) cells were grown and induced similar as described for SHP2. Collected cells were resuspended in lysis buffer (25 mM Tris, pH 7.5, 300 mM NaCl, 50 mM imidazole, and 10% glycerol) with 100 mg/l RNaseA and were lysed with two passages using a microfluidizer. The lysate was clarified by centrifugation at 15,000g for 50 min and applied to nickel–nitrilotriacetic acid resin. The column resin was washed, and the PTP1B or STEP protein was eluted in lysis buffer at 300 mM imidazole. The PTP1B or STEP protein was further purified by S75 size-exclusion chromatography in 50 mM Tris, pH 7.5, 50 mM NaCl. The eluted peak fractions were supplemented with tris(2-carboxyethyl)phosphine to 10 mM, concentrated by ultrafiltration, and stored at −80 °C. The purified yield of PTP1B was 33 mg/l cell culture; the yield of STEP was 16 mg/l cell culture.
SHP2 inhibitors were tested at RT in a 384-well plate format standard phosphatase fluorescence intensity assay using DiFMUP (Invitrogen/Thermo Fisher Scientific) as a substrate and a total reaction volume of 25 μl. SHP2 inhibitors or vehicle (DMSO) were spotted in triplicate into a black Greiner FLUOTRAC 200 384-well microplate (catalog no.: 781076; Greiner) for a 10-point dose–response assay using an Echo 555 Liquid Handler (Labcyte, Inc). PTP working solutions were prepared at a 0.625 nM concentration (for a final concentration of 0.5 nM) in buffer containing 50 mM Bis–Tris, pH 6.0, 50 mM NaCl, 5 mM DTT, and 0.01% Tween-20. Prior to the assay, a dually phosphorylated IRS-1 peptide (625 nM [500 nM final] ([30])) was added to full-length WT SHP2 working solutions and incubated for 20 min. DiFMUP working solutions at 5× final concentration were prepared in 50 mM Bis–Tris, pH 6.0, 50 mM NaCl, and 0.01% Tween-20. About 20 μl of PTP working solution was dispensed into the microplate and incubated with inhibitor for 20 min at RT. […] The reaction was initiated by addition of 5 μl DiFMUP working solutions. Fluorescence intensity was measured in kinetic mode (every minute for 7 or 10 min) using a Tecan Spark Multimode Microplate Reader (Tecan) with an excitation wavelength of 360 nm and an emission wavelength of 460 nm. […]

[2] = test system: Kasumi-1 acute myeloid leukemia (AML) cells; experiment: Cell viability (CellTiter-Glo), Kasumi-1; type: cell-based; details: for effect on Kasumi-1 cell growth: various concentrations, 3 days
Description: Inhibition of SHP2 has been reported to inhibit the growth of cancer cells including Kasumi-1 acute myeloid leukemia (AML) and KYSE-520 esophageal cancer cells ([30]). […] Thus, we treated two TNBC cell lines, BT-549 and MDA-MB-468, with SBI-4668 or the SHP2 allosteric inhibitor SHP099 at various concentrations and determined cell viability after 72 h, compared with the vehicle control (Fig. 4C). […] Next, we performed an 11-day colony formation assay with TNBC cells treated with SBI-4668 or SHP099 at 5, 10, or 20 μM (Fig. 4D).
Viability of AML and esophageal carcinoma cells was assessed using the ATP-depletion assay CellTiter-Glo (Promega). Cells were harvested at 1 × 10^6/ml to 2 × 10^6 cells/ml with cell numbers determined by trypan blue using the Countess Cell counter (Thermo Scientific) and resuspended in culture media. About 3000 cells (in 20 μl) were seeded in a 384-well format white and clear-bottom microplate (catalog no.: 781098; Greiner) spotted with test compound or vehicle control (DMSO) using an Echo 555 Liquid Handler. Cells were incubated for 3 days, before 10 μl of CellTiter-Glo reagent mix was added to each well and incubated for 10 min at RT. Luminescence was read on a Tecan Spark Multimode Microplate Reader, and data were analyzed using GraphPad Prism software.

[3] = DiFMUP at Km (20 μM), pH 6.0, read-out: SHP2cat, IC50
[4] = catalytic domain, DiFMUP at Km, read-out: SHP2 IC50 (Table 2)

In the case of `Nc1ccc(NC(=O)c2cc(-c3ccc(/C=C4\Sc5ccccc5C4=O)o3)ccc2O)cc1` [SBI-2130, (Z)-N-(4-Aminophenyl)-2-hydroxy-5-(5-((3-oxobenzo[b]thiophen-2(3H)-ylidene)methyl)furan-2-yl)benzamide], the IC50 [1, 3] is reported as 0.22 µM, the IC50 [1, 4] is reported as 0.22 µM and the “effect on Kasumi-1 cell growth” value [2] is reported as “dose-dependently inhibited cancer cell growth”.
`O=C1CCCC1=Cc1ccc(-c2ccc(O)c(C(=O)Nc3ccccc3)c2)o1` [SBI-3192, 2-Hydroxy-5-(5-((2-oxocyclopentylidene)methyl)furan-2-yl)-N-phenylbenzamide] was tested, and the IC50 [1, 3] was 1.1 µM and the IC50 [1, 4] was 1.1 µM.
With `N#Cc1cc(-c2ccc(/C=C3\Sc4ccccc4C3=O)o2)ccc1O` [SBI-3404, (Z)-2-Hydroxy-5-(5-((3-oxobenzo[b]thiophen-2(3H)-ylidene)methyl)furan-2-yl)benzonitrile] the IC50 [1, 3] was 1.4 µM, the IC50 [1, 4] was 1.4 µM and the “effect on Kasumi-1 cell growth” value [2] was “dose-dependently inhibited cancer cell growth”.
Work on `O=C1/C(=C/c2ccc(-c3ccc(O)c(-c4nn[nH]n4)c3)o2)Sc2ccccc21` [SBI-3405, (Z)-2-((5-(4-Hydroxy-3-(2H-tetrazol-5-yl)phenyl)furan-2-yl)methylene)benzo[b]thiophen-3(2H)-one] yielded an IC50 [1, 3] of 2 µM and an IC50 [1, 4] of 2 µM.
With `O=C(Nc1ccccc1)c1cc(-c2ccc(/C=C3\Sc4ccccc4C3=O)o2)ccc1O` [SBI-4668, (Z)-2-Hydroxy-5-(5-((3-oxobenzo[b]thiophen-2(3H)-ylidene)methyl)furan-2-yl)-N-phenylbenzamide] the IC50 [1, 3] was 0.73 µM, the IC50 [1, 4] was 0.73 µM and the IC50 ([2]; Homo sapiens, Kasumi 1, 72 h, 3 days in culture) was 8.5 µM. For the same compound, the “effect on Kasumi-1 cell growth” value [2] was “dose-dependently inhibited cancer cell growth”.
